Among the data in ChEMBL document CHEMBL3217595, “RCAI-133, an N-methylated analogue of KRN7000, activates mouse natural killer T cells to produce Th2-biased cytokines” (2013) are Activity and Ratio values, retold here.

The test system of assay [1] is Mus musculus. Description: Immunostimulatory activity in C57BL/6 mouse assessed as induction of IFN-gamma production in serum at 2 ug, iv administered through PBS solution by ELISA. The format is functional, organism-based. In general terms: In an ELISA, binding on a coated surface is turned into a signal by an enzyme label.
Assay [2] deals with Mus musculus. Description: Immunostimulatory activity in C57BL/6 mouse assessed as induction of IL-4 production in serum at 2 ug, iv administered through PBS solution. The format is functional, organism-based.
Assay [3] concerns Mus musculus. Description: Immunostimulatory activity in C57BL/6 mouse assessed as induction of IL-4/IFN-gamma ratio in serum at 2 ug, iv administered through PBS solution. In kind it is functional.

Calls of active or inactive are those of the source. The rule behind the calls is not given here.

`CCCCCCCCCCCCCCCCC(C)(C)C(=O)N[C@@H](CO[C@H]1O[C@H](CO)[C@H](O)[C@H](O)[C@H]1O)[C@H](O)[C@H](O)CCCCCCCCCCCCCC`: the outcome with Mus musculus [1] and in the assay on Mus musculus [2] was Active.

As to `CCCCCCCCCCCCCCCC[C@@H](O)C(=O)N(C)[C@@H](CO[C@H]1O[C@H](CO)[C@H](O)[C@H](O)[C@H]1O)[C@H](O)[C@H](O)CCCCCCCCCCCCCC`, the outcome with Mus musculus [1] and with Mus musculus [2] was inactive.

In the case of `CCCCCCCCCCCCCCCC[C@@H](O)C(=O)N[C@@H](CO[C@H]1O[C@H](CO)[C@H](O)[C@H](O)[C@H]1O)[C@H](O)[C@H](O)CCCCCCCCCCCCCC`, the outcome in the assay with Mus musculus [1] and in the assay with Mus musculus [2] was Active.

As to `CCCCCCCCCCCCCCCCCC(=O)N(C)[C@@H](CO[C@H]1O[C@H](CO)[C@H](O)[C@H](O)[C@H]1O)[C@H](O)[C@H](O)CCCCCCCCCCCCCC`, the Ratio in the assay on Mus musculus [3] is listed as 0.0095. The outcome with Mus musculus [1] and in the assay with Mus musculus [2] was inactive.

Turning to `CCCCCCCCCCCCCCCCCCCCCCCCCC(=O)N[C@@H](CO[C@H]1O[C@H](CO)[C@H](O)[C@H](O)[C@H]1O)[C@H](O)[C@H](O)CCCCCCCCCCCCCC` [RGI-7000], the Ratio in the assay on Mus musculus [3] stood at 0.0043.

With `CCCCCCCCCCCCCCCCCC(=O)N[C@@H](CO[C@H]1O[C@H](CO)[C@H](O)[C@H](O)[C@H]1O)[C@H](O)[C@H](O)CCCCCCCCCCCCCC`, the outcome in the assay on Mus musculus [1] and in the assay with Mus musculus [2] was Active.

With `CCCCCCCCCCCCCCCC[C@@H](C)C(=O)N[C@@H](CO[C@H]1O[C@H](CO)[C@H](O)[C@H](O)[C@H]1O)[C@H](O)[C@H](O)CCCCCCCCCCCCCC`, the result in the assay on Mus musculus [1] and in the assay with Mus musculus [2] was Active.

On to `CCCCCCCCCCCCCCCCC(C)(C)C(=O)N(C)[C@@H](CO[C@H]1O[C@H](CO)[C@H](O)[C@H](O)[C@H]1O)[C@H](O)[C@H](O)CCCCCCCCCCCCCC`, for which the result in the assay on Mus musculus [1] and in the assay on Mus musculus [2] was inactive.

On to `CCCCCCCCCCCCCCCC[C@@H](C)C(=O)N(C)[C@@H](CO[C@H]1O[C@H](CO)[C@H](O)[C@H](O)[C@H]1O)[C@H](O)[C@H](O)CCCCCCCCCCCCCC`, for which the outcome in the assay on Mus musculus [1] and with Mus musculus [2] was inactive.

As to `CCCCCCCCCCCCCCCCCCCCCCCCCC(=O)N(C)[C@@H](CO[C@H]1O[C@H](CO)[C@H](O)[C@H](O)[C@H]1O)[C@H](O)[C@H](O)CCCCCCCCCCCCCC`, in the assay with Mus musculus [3], the Ratio was 0.017.
